Results reported in patent US20080044405A1, “Noble metal complex-mediated immunosuppression” (President and Fellows of Harvard College, priority 2006, published 2008).
Several values for one entry are separate records, joined by “and”; a condition that tells them apart may be missing. Identical values can stand only once. Like-named read-outs stand apart in the source and are kept apart here.

Assays:
[1] = biological target: DR1-HA (Homo sapiens, UniProt P01903+P01911, A100R/D57E/F55L/F60I/F76Y/I96L/L162R/M171V/P40L/Q125E/R42F/V115G/Y59C); experiment: activation of sodium aurothiomalate by hypochlorite, peptide release ELISA; type: binding; conditions: pH 7.4, final compound 10 μM, oxidant 0-10 μM, overnight 37° C.
Method: Activation of sodium aurothiomalate (sodium Au(I)-thiomalate, 8) by sodium hypochlorite (NaOCl). Sodium aurothiomalate (8; 300 μM) and a control, thiomalate (D,L-mercaptosuccinic acid, 9), were dissolved in PBS and incubated for 1 h at 20° C. with increasing concentrations of NaOCl. After 1 h, 5 μl of each reaction stock solution was added to DR1-HA-biotin (0.1 μM) in PBS (pH 7.4). The final concentration of compounds 8 and 9 was 10 μM. After incubation of the protein with added compound overnight at 37° C., the amount of biotinylated HA peptide that bound to DR1 was determined by chemiluminescent ELISA.
Activation of sodium aurothiomalate (Au(I)-thiomalate, 8) by sodium hypochlorite (NaOCl). The concentration of sodium hypochlorite (NaOCl) solution was determined prior to each use by measuring the absorbance at 292 nm (ε292=350 M^−1cm^−1). Sodium aurothiomalate (8), 300 μM, was incubated for one hour at 20° C. in the presence of increasing concentrations of NaOCl (0 μM, 100 μM, 125 μM, 150 μM, and 300 μM) in PBS (pH 7.4). As a control, thiomalate (D,L-mercaptosuccinic acid, 9), 300 μM, was also treated with the identical concentrations of NaOCl. After one hour, 5 μL of each reaction stock solution was added to 145 μL of DR1-HA-biotin complex in PBS (pH 7.4). The final protein concentration was 0.1 μM and the final concentration of compounds 8 and 9 was 10 μM. Final concentrations of oxidant were 0, 3.33, 4.17, 5 and 10 μM. Each concentration of oxidant was tested in quadruplicate. After incubating overnight at 37° C., the amount of biotinylated HA peptide that remained bound to DR1 was determined using the chemiluminescent ELISA described above.

[2] = biological target: DR1-CLIP complex (Homo sapiens, UniProt P01903+P01911, A100R/D57E/F55L/F60I/F76Y/I96L/L162R/M171V/P40L/Q125E/R42F/V115G/Y59C); experiment: chemiluminescent ELISA of metal-induced peptide release, DR1-CLIP; type: binding; conditions: for IC50: read-out: IC50 for CLIP release from DR1
[3] = biological target: DR1-CLIP (fluorescently labeled CLIP bound to HLA-DR1) (Homo sapiens, UniProt P01903+P01911, A100R/D57E/F55L/F60I/F76Y/I96L/L162R/M171V/P40L/Q125E/R42F/V115G/Y59C); experiment: fluorescence polarization screen of peptide release from DR1-CLIP (high-throughput and focused metal screen); type: binding; conditions: for ability to disrupt DR1-CLIP association, focused screen of metal complexes (FIG. 1a): 250 μM, ~20 h, 37° C., pH 5.0; for activity in high-throughput screen (peptide release by fluorescence polarization): 28,000 compounds screened, HLA-DM present, pH 5
Method: To find small-molecule modulators of class II MHC-peptide interactions, we used a high-throughput, fluorescence polarization assay to screen 28,000 compounds and natural extracts. Each well of a microplate contained a fluorescently labeled class II-associated invariant chain peptide (CLIP) bound to human leukocyte antigen (HLA)-DR1, a class II MHC protein. In addition, HLA-DM, a peptide exchange catalyst required in vivo for efficient loading, was present. The assay was performed at pH 5 to simulate endosomal pH (Morris P et al. (1994) Nature 368:551-4; Weber D A et al. (1996) Science 274:618-20). Compounds were added to the plates by pin transfer and monitored peptide release by fluorescence polarization. The screen uncovered only two active compounds, cisplatin (1) and carboplatin (2), both platinum(II) complexes.
Fluorescence polarization (FP) based binding assay used for small molecule screening. A FP assay was developed in order to screen small-molecule libraries for chemicals that could modulate peptide binding by class II MHC proteins. The fluorescent DR1-CLIP-AlexaFluor488 (0.1 μM) was used for all FP studies. The concentration of DM used in the screening assay, and when included as a control, was 0.1 μM. Experiments were carried out in a final volume of 40 μl in black, 384-well assay plates (non-binding surface, Costar). The plate was sealed with an aluminum foil seal (Costar), placed in a sealed humidified container, and incubated at 37° C. The FP values for each experimental well were determined using a plate reader (Analyst, LJL Biosystems). A total of 27,937 compounds from several commercial sources were screened using this assay. This assay format was also used to screen several metal complexes and chloride salts as wells as for kinetic studies.
Focused screen of metal complexes using the FP assay. Based on the results of the primary small molecule screen, a focused screen consisting of several metal complexes and chloride salts was performed using the fluorescence polarization assay. […]. These were tested in duplicate at a concentration of 250 μM. For the focused screen, DR1 (100 nM) bound to a Alexa-Fluor 488-labeled CLIP (af-CLIP) peptide was incubated with several metal complexes and salts (250 μM) for ˜20 h (37° C., pH 5.0), and then peptide release was measured by a fluorescence polarization assay. For comparison, the FP of labeled DR1-CLIP incubated with and without excess unlabeled HA peptide and the FP of af-CLIP peptide alone were also measured.

[4] = system: HA peptide-loaded LG-2 cells presented to influenza-specific T cell hybridoma; experiment: T cell activation assay (IL-2 release); type: cell-based; conditions: 1-100 μM, APCs treated […], IL-2 ELISA (FIG. 4c)
[5] = system: peptide-class II MHC complex; experiment: inhibition of peptide-class II MHC complex formation, cis versus trans; type: binding
[6] = biological target: DR1-HA(306-318) complex (Homo sapiens, UniProt P01903+P01911, A100R/D57E/F55L/F60I/F76Y/I96L/L162R/M171V/P40L/Q125E/R42F/V115G/Y59C); experiment: chemiluminescent ELISA of metal-induced peptide release, DR1-HA; type: binding; conditions: read-out: IC50 for HA peptide release from DR1
[7] = pH 5, overnight 37° C., without DM

`O=C(O)CC(S)C(=O)O` (racemic) [thiomalate, D,L-mercaptosuccinic acid] was tested, and the “peptide release from DR1-HA after treatment of compound with hypochlorite” value (shortened to “peptide release from DR1-HA”) [1] was “does not have an effect” and the “peptide release from DR1-HA” value ([1]; listed as 9) was “did not”.

`[Cl][Pd-2]([Cl])([Cl])[Cl].[K+].[K+]` [Compound K2PdCl4, K2PdCl4] was tested, and the IC50 [2, 7] was 3480 ± 370 nM and the “ability to disrupt DR1-CLIP association, focused screen of metal complexes (FIG. 1a)” value (from here on “ability to disrupt DR1-CLIP association”) [3] was “active”.

In the case of `[Au+].[C-]#N.[C-]#N.[K+]` [K[Au^I(CN)2]], the “ability to disrupt DR1-CLIP association” value [3] is reported as “did not release peptide from DR1”.

With `[Cl][Ni][Cl]` [NiCl2] the “activity in titration of DR1-CLIP complex (FIG. 1b)” value (from here on “activity in titration”) ([2]; pH 5) was “inactive” and the “ability to disrupt DR1-CLIP association” value [3] was “inactive”.

`N.N.O=C([O-])C1(C(=O)[O-])CCC1.[Pt+2]` [carboplatin, diammine[1,1-cyclobutane-dicarboxylato(2-)-O,O′]—Pt^II] was tested, and the “activity in high-throughput screen (peptide release by fluorescence polarization)” value [3] was “active”.

With `N.N.[Cl][Pt][Cl]` [cisplatin, cis-diamminedichloroplatinum (II)] the IC50 [2, 7] was 2660 ± 690 nM, the IC50 ([2]; pH 7.4) was 770 ± 30 nM and the “inhibition of T-cell activation by metal-pretreated antigen-presenting cells” value [4] was “blocked”. For the same compound, the “inhibition of T-cell activation by metal-pretreated antigen-presenting cells” value ([4]; listed as Cisplatin) was “more potent”, the “activity as inhibitor of peptide-class II MHC complex formation” value [5] was “active” and the “activity in high-throughput screen (peptide release by fluorescence polarization)” value [3] was “active”. The IC50 ([6]; pH 5) was ~4000 nM and 5490 nM and the IC50 ([6]; pH 7.4) was ~1000 nM and 1060 nM.

With `O=C([O-])CC([S-])C(=O)[O-].[Au+].[Na+].[Na+]` (stereo not drawn) [sodium Au(I)-thiomalate, sodium aurothiomalate] the “activity in titration” value ([2]; pH 5) was “did not release peptide from DR1”, the “activity in titration” value ([2]; pH 5, listed as sodium aurothiomalate) was “inactive” and the “peptide release from DR1-HA” value [1] was “causes peptide release from DR1”. For the same compound, the “peptide release from DR1-HA” value ([1]; listed as 8) was “caused peptide release”.

`N.N.[Cl][Pt+2][Cl]` [transplatin] was tested, and the “activity as inhibitor of peptide-class II MHC complex formation” value [5] was “is not”.
